Test results published in patent US20250026721A1, “COMPOUNDS AND METHODS FOR MODULATING RAS-PI3K” (Vividion Therapeutics, Inc., priority 2023, published 2025).

Each compound was assayed against T1, PIK3CA (Homo sapiens, UniProt P42336) (assay: In vitro ELISA target engagement assay for PIK3CA in Jurkat cellular lysate (competition with PIK3CA Biotin Probe)). Conditions: 1 hour at rt, then 500 nM PIK3CA Biotin Probe, read-out: Elisa Target Engagement Assay (TE50).
T1 construct: endogenous in cells; host or cells: Jurkat cell lysate
Format: binding
Protocol: Example 3. In Vitro ELISA Target Engagement Assay for […] Engagement of compounds on PIK3CA were assessed in Jurkat cellular lysate via a sandwich ELISA. A solution of PIK3CA Biotin Probe was generated at 10 mM and used in the biological testing. […] Treatment Protocol: Jurkat cellular lysate was generated from frozen cell pellets. Cells were thawed on ice and resuspended in cold Dulbecco's phosphate buffered saline (DPBS) (12 mL/300 e^6 cells) then lysed by probe sonication (12×3 second pulses). Jurkat lysate was plated (50 μl/well) in Armadillo 96 well PCR plates (Thermo Fisher catalog number AB2396). The lysate was treated with serial dilutions of test compounds up to 200 μM and incubated for 1 hour at rt. Following compound incubation, PIK3CA Biotin Probe was added to a final concentration of 500 nM, and lysate was mixed by pipetting gently and incubated for an additional 1 hour at rt. The mixture was then diluted in 75 μL Dilution buffer. The mixture was centrifuged for 5 minutes at 4122 g and stored at −80° C. until ELISA TE detection. ELISA TE Detection: Quantification of PIK3CA TE was initiated by coating of the ELISA plate (Thermo Scientific White 384-Well Immuno plates; Thermo Fisher catalog number 460372). The capture antibody was diluted in plating buffer (1:83) and added to the ELISA plate, 20 μl/well, overnight at 4° C. The plate was then washed twice with PBST, 100 μl/well, and blocked with addition of blocking buffer (100 μl/well, 1 hour at rt). During block, treated and probe labeled lysate was thawed. After Block, the block buffer was removed and the thawed lysate was added to the ELISA plate, 30 μl/well, for 1.5 hours at rt. Following lysate incubation, the assay plate was washed 3 times with PBST, 100 μl/well. The Neutravidin-HRP was then diluted (1:500 in dilution buffer) and added for 1 hour at rt, 20 μl/well. Following incubation, the assay plate was washed 4 times with PBST, 100 μl/well, HRP substrate was added to plate, 20 μl/well and luminescence signal was read (Clariostar Plate Reader). For each compound the potency of target engagement (TE50) was determined using Graphpad Prism.

T1 sequence (P42336 whole entry): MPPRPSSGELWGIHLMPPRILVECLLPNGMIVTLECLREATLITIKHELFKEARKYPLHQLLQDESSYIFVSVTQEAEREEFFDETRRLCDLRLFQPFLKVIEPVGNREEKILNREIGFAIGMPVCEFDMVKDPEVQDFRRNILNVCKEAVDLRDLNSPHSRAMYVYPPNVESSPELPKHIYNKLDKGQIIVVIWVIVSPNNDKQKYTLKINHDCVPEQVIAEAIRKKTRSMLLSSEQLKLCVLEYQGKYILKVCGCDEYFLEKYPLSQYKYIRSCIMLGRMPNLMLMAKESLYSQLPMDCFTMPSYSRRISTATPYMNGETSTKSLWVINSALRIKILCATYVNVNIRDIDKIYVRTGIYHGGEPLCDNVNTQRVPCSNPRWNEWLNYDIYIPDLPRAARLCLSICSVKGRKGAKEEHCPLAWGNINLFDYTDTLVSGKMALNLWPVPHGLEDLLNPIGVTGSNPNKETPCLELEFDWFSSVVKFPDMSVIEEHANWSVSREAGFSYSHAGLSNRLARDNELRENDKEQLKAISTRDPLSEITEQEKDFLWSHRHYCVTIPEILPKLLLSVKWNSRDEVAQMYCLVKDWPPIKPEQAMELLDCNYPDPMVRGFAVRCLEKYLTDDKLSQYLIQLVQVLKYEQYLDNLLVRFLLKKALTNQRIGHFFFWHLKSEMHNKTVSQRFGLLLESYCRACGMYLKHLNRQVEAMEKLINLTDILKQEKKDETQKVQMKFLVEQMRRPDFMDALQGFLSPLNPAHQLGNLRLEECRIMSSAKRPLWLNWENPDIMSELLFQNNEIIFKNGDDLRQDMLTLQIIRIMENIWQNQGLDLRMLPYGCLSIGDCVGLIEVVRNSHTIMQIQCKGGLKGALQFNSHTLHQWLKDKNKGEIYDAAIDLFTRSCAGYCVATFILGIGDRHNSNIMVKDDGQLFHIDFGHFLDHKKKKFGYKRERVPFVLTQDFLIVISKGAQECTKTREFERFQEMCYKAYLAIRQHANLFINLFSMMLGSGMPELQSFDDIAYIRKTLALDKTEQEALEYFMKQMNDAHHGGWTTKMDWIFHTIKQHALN
T1 sequence (P27986 whole entry partner): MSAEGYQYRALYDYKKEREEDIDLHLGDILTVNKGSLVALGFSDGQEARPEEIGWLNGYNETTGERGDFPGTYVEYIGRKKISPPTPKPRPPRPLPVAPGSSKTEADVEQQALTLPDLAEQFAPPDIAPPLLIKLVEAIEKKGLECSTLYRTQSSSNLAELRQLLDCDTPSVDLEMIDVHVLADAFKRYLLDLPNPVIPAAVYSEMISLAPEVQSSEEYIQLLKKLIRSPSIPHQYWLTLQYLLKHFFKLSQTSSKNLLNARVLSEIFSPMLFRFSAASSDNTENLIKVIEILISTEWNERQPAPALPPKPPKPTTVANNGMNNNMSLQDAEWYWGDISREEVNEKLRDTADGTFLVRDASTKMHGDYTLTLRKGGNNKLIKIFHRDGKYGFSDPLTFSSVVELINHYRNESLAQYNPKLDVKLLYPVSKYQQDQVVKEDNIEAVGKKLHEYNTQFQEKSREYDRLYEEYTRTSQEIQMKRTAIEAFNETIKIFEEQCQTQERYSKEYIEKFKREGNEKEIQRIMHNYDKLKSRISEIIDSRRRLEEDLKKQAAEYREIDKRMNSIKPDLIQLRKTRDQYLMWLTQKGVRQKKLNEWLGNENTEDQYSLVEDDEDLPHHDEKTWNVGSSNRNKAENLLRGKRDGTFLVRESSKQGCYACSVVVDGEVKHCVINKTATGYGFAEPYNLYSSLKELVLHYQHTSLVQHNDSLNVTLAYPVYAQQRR

Compound	IC50 [nM]
CC(O)c1ccc(S(=O)(=O)N2CCC(F)(C(=O)N[C@H](C)/C=C\S(C)(=O)=O)CC2)c(-c2ccccc2Cl)c1 (stereo partly drawn) [Compound 129, 1-((2′-chloro-5-(1-hydroxyethyl)-[1,1′-biphenyl]-2-yl)sulfonyl)-4-fluoro-N-((R,Z)-4-(methylsulfonyl)but-3-en-2-yl)piperidine-4-carboxamide]	440
C[C@H](C#CC(=O)N(C)C)NC(=O)C1(F)CCN(S(=O)(=O)c2ccc(Br)cc2-c2ccccc2Cl)CC1 [Compound 280, (R)-1-((5-bromo-2′-chloro-[1,1′-biphenyl]-2-yl)sulfonyl)-N-(5-(dimethylamino)-5-oxopent-3-yn-2-yl)-4-fluoropiperidine-4-carboxamide]	150
COc1ccc(S(=O)(=O)N2CCC(OC)(C(=O)N[C@H](C)/C=C\S(C)(=O)=O)CC2)c(-c2ccccc2Cl)c1 [Compound 146, 1-[2-(2-chlorophenyl)-4-methoxy-phenyl]sulfonyl-4-methoxy-N—[(Z,1R)-1-methyl-3-methylsulfonyl-allyl]piperidine-4-carboxamide]	610
O=C(NCC1=CS(=O)(=O)C1)C1(F)CCN(S(=O)(=O)c2ccc(Br)cc2-c2ccccc2Cl)CC1 [Compound 233, 1-((5-bromo-2′-chloro-[1,1′-biphenyl]-2-yl)sulfonyl)-N-((1,1-dioxido-2H-thiet-3-yl)methyl)-4-fluoropiperidine-4-carboxamide]	290
Cc1c(F)cccc1-c1cc(Br)ccc1S(=O)(=O)N1CCC(F)(C(=O)N[C@H](C)/C=C\S(C)(=O)=O)CC1 [Compound 56, (R,Z)-1-((5-bromo-3′-fluoro-2′-methyl-[1,1′-biphenyl]-2-yl)sulfonyl)-4-fluoro-N-(4-(methylsulfonyl)but-3-en-2-yl)piperidine-4-carboxamide]	150
C[C@H](/C=C\S(C)(=O)=O)NC(=O)C1(F)CCN(S(=O)(=O)c2ccc(CCO)cc2-c2ccccc2Cl)CC1 [Compound 128, (R,Z)-1-((2′-chloro-5-(2-hydroxyethyl)-[1,1′-biphenyl]-2-yl)sulfonyl)-4-fluoro-N-(4-(methylsulfonyl)but-3-en-2-yl)piperidine-4-carboxamide]	280
CC(C)OC(=O)N1C[C@H](C(=O)N2CCC(F)(C(=O)N[C@H](C)/C=C\S(C)(=O)=O)CC2)[C@H](c2ccccc2Cl)C1 [Compound 159, isopropyl(3R,4R)-3-(2-chlorophenyl)-4-(4-fluoro-4-(((R,Z)-4-(methylsulfonyl)but-3-en-2-yl)carbamoyl)piperidine-1-carbonyl)pyrrolidine-1-carboxylate]	980
C[C@H](/C=C\S(C)(=O)=O)NC(=O)[C@]1(F)CCN(S(=O)(=O)c2ccc(C(F)(F)F)cc2-c2ccccc2Cl)[C@H](C)C1 [Compound 142, (2R,4S)-1-((2′-chloro-5-(trifluoromethyl)-[1,1′-biphenyl]-2-yl)sulfonyl)-4-fluoro-2-methyl-N-((R,Z)-4-(methylsulfonyl)but-3-en-2-yl)piperidine-4-carboxamide]	120
C[C@H](/C=C\S(C)(=O)=O)NC(=O)[C@@]1(F)CCCN(C(=O)[C@@H]2CN(CC(F)(F)F)C[C@@H]2c2c(F)ccc(F)c2Cl)CC1 (single isomer, unassigned) [Compound 226, (R)-1-((3*S,4*S)-4-(2-chloro-3,6-difluorophenyl)-1-(2,2,2-trifluoroethyl)pyrrolidine-3-carbonyl)-4-fluoro-N-((R,Z)-4-(methylsulfonyl)but-3-en-2-yl)azepane-4-carboxamide]	170
COc1ccc(C(=O)N2CCC[C@](F)(C(=O)N[C@H](C)/C=C\S(C)(=O)=O)CC2)c(-c2ccccc2Cl)c1 [Compound 295, (R)-1-(2′-chloro-5-methoxy-[1,1′-biphenyl]-2-carbonyl)-4-fluoro-N-((R,Z)-4-(methylsulfonyl)but-3-en-2-yl)azepane-4-carboxamide]	350
COC1(C(=O)N[C@H](C)/C=C\S(C)(=O)=O)CCN(S(=O)(=O)c2ccc(Br)cc2-c2ccccc2Cl)CC1 [Compound 133, (R,Z)-1-((5-bromo-2′-chloro-[1,1′-biphenyl]-2-yl)sulfonyl)-4-methoxy-N-(4-(methylsulfonyl)but-3-en-2-yl)piperidine-4-carboxamide]	220
CS(=O)(=O)C=C1CN(C(=O)C2(F)CCN(S(=O)(=O)c3ccc(Br)cc3-c3ccccc3Cl)CC2)C1 [Compound 273, (1-((5-bromo-2′-chloro-[1,1′-biphenyl]-2-yl)sulfonyl)-4-fluoropiperidin-4-yl)(3-((methylsulfonyl)methylene)azetidin-1-yl)methanone]	830
C[C@H](/C=C/C(=O)N1CC(F)(F)C1)NC(=O)[C@]1(F)CCN(S(=O)(=O)c2ccc(C(F)(F)F)cc2-c2ccccc2Cl)[C@H](C)C1 [Compound 152, (2R,4S)-1-((2′-chloro-5-(trifluoromethyl)-[1,1′-biphenyl]-2-yl)sulfonyl)-N-((R,E)-5-(3,3-difluoroazetidin-1-yl)-5-oxopent-3-en-2-yl)-4-fluoro-2-methylpiperidine-4-carboxamide]	450
COc1ccc(S(=O)(=O)N2CCC(F)(C(=O)N[C@H](/C=C\S(C)(=O)=O)CC(F)(F)F)CC2)c(-c2ccccc2Cl)c1 (single isomer, unassigned) [Compound 239, (*S,Z)-1-((2′-chloro-5-methoxy-[1,1′-biphenyl]-2-yl)sulfonyl)-4-fluoro-N-(5,5,5-trifluoro-1-(methylsulfonyl)pent-1-en-3-yl)piperidine-4-carboxamide]	280
CC[C@H](/C=C/S(=O)(=O)C1CNC1)NC(=O)C1(F)CCN(S(=O)(=O)c2ccc(Br)cc2-c2ccccc2Cl)CC1 [Compound 77, (R,E)-N-(1-(azetidin-3-ylsulfonyl)pent-1-en-3-yl)-1-((5-bromo-2′-chloro-[1,1′-biphenyl]-2-yl)sulfonyl)-4-fluoropiperidine-4-carboxamide]	128
CCOC(=O)N1C[C@H](C(=O)N2CCC(F)(C(=O)N[C@H](C)/C=C\S(C)(=O)=O)CC2)[C@H](c2ccccc2Cl)C1 [Compound 160, ethyl (3R,4R)-3-(2-chlorophenyl)-4-(4-fluoro-4-(((R,Z)-4-(methylsulfonyl)but-3-en-2-yl)carbamoyl)piperidine-1-carbonyl)pyrrolidine-1-carboxylate]	670
C[C@@H](C#CC(=O)N(C)C)NC(=O)C1(F)CCN(S(=O)(=O)c2ccc(Br)cc2-c2ccccc2Cl)CC1 [Compound 281, (S)-1-((5-bromo-2′-chloro-[1,1′-biphenyl]-2-yl)sulfonyl)-N-(5-(dimethylamino)-5-oxopent-3-yn-2-yl)-4-fluoropiperidine-4-carboxamide]	160
C[C@H](/C=C\S(C)(=O)=O)NC(=O)C1(F)CCN(S(=O)(=O)c2ccc(Br)cc2-c2cccc(F)c2Cl)CC1 [Compound 52, (R,Z)-1-((5-bromo-2′-chloro-3′-fluoro-[1,1′-biphenyl]-2-yl)sulfonyl)-4-fluoro-N-(4-(methylsulfonyl)but-3-en-2-yl)piperidine-4-carboxamide]	140
C[C@H](/C=C/C(=O)N1CC(F)(F)C1)NC(=O)C1(F)CCN(S(=O)(=O)c2ccc(C#N)cc2-c2ccccc2Cl)CC1 [Compound 136, (R,E)-1-((2′-chloro-5-cyano-[1,1′-biphenyl]-2-yl)sulfonyl)-N-(5-(3,3-difluoroazetidin-1-yl)-5-oxopent-3-en-2-yl)-4-fluoropiperidine-4-carboxamide]	190
Cc1ccc(-c2cc(Br)ccc2S(=O)(=O)N2CCC(F)(C(=O)N[C@H](C)/C=C\S(C)(=O)=O)CC2)c(Cl)c1 [Compound 53, (R,Z)-1-((5-bromo-2′-chloro-4′-methyl-[1,1′-biphenyl]-2-yl)sulfonyl)-4-fluoro-N-(4-(methylsulfonyl)but-3-en-2-yl)piperidine-4-carboxamide]	960
C[C@H](/C=C\S(C)(=O)=O)NC(=O)C1(F)CCN(S(=O)(=O)c2ccc(Cl)cc2-c2ccccc2Cl)CC1 [Compound 23, (R,Z)-1-((2′,5-dichloro-[1,1′-biphenyl]-2-yl)sulfonyl)-4-fluoro-N-(4-(methylsulfonyl)but-3-en-2-yl)piperidine-4-carboxamide]	91
C[C@H](/C=C/C(=O)N1CC(F)(F)C1)NC(=O)[C@]1(F)CCN(S(=O)(=O)c2ccc(C#N)cc2-c2ccccc2Cl)[C@H](C)C1 [Compound 154, (2R,4S)-1-((2′-chloro-5-cyano-[1,1′-biphenyl]-2-yl)sulfonyl)-N-((R,E)-5-(3,3-difluoroazetidin-1-yl)-5-oxopent-3-en-2-yl)-4-fluoro-2-methylpiperidine-4-carboxamide]	190
